Reference: patent US6423711B1 (dated 2002)
Where a name gives a salt, the structure may show the parent alone.

SMILES | melting point
CCNC(=O)N1CCN(c2cc(-c3ccccc3)nc3ccsc23)CC1.Cl | > 240 °C (dec.)
CCNC(=O)N1CCN(c2cc(-c3cccc(OC)c3)nc3ccsc23)CC1.Cl | > 198 °C
Cl.O=C(NCCCCl)N1CCN(c2cc(-c3ccc(F)cc3)nc3ccsc23)CC1 | 235 to 238 °C (dec.)
CCNC(=O)N1CCN(c2cc(-c3ccc(F)cc3)nc3ccsc23)CC1.Cl | > 147 °C (dec.)
CNC(=O)N1CCN(c2cc(-c3ccccc3)nc3ccsc23)CC1.Cl | 185 to 190 °C
CCNC(=O)C1CCN(c2cc(-c3ccccc3)nc3cccnc23)CC1.Cl | > 210 °C (dec.)
NC(=O)C1CCN(c2cc(-c3ccccc3F)nc3ccsc23)CC1 | 194 to 195 °C
COc1cccc(-c2cc(N3CCC(C(N)=O)CC3)c3sccc3n2)c1.Cl | 133 to 135 °C (dec.)
CCNC(=O)C1CCN(c2cc(-c3cccc(OC)c3)nc3ccsc23)CC1.Cl | > 230 °C (dec.)
CCOc1ccc(-c2cc(N3CCC(C(N)=O)CC3)c3sccc3n2)cc1.Cl | 211 to 213 °C (dec.)
CCOc1ccc(-c2cc(N3CCC(C(=O)NCc4ccccn4)CC3)c3sccc3n2)cc1.Cl | 178 to 180 °C (dec.)
COC(=O)C1CCN(c2cc(-c3ccccc3)nc3sccc23)CC1.Cl | > 220 °C (dec.)
NC(=O)C1CCN(c2cc(-c3ccc(F)cc3)nc3ccsc23)CC1 | 251 to 253 °C
COc1cccc(-c2cc(N3CCN(C(=O)c4ccncc4)CC3)c3sccc3n2)c1 (as salt: hydrochloride) | 215 to 217 °C
NC(=O)C1CCN(c2cc(-c3ccc(F)cc3)nc3ccsc23)CC1 (as salt: hydrochloride) | > 303 °C (dec.)
COC(C)CNC(=O)C1CCN(c2cc(-c3ccc(F)cc3)nc3ccsc23)CC1 (centres unmarked) (as salt: hydrochloride) | 179 to 180 °C (dec.)
COc1cccc(-c2cc(N3CCN(C(=O)c4ccc(F)cc4)CC3)c3sccc3n2)c1 (as salt: hydrochloride) | > 174 °C (dec.)
c1ccc(-c2cc(N3CCOCC3)c3sccc3n2)cc1 (as salt: hydrochloride) | 195 to 198 °C

The remaining lines, values ahead:

melting point | SMILES
> 260 °C (dec.) | CNC(=O)C1CCN(c2cc(-c3ccccc3)nc3ccsc23)CC1.Cl
159 to 160 °C (dec.) | CCCNC(=O)C1CCN(c2cc(-c3ccccc3)nc3ccsc23)CC1.Cl
270 to 272 °C (dec.) | CC(C)(C)NC(=O)C1CCN(c2cc(-c3ccccc3)nc3ccsc23)CC1.Cl
170 to 172 °C (dec.) | CCCCNC(=O)C1CCN(c2cc(-c3ccccc3)nc3ccsc23)CC1.Cl
199 to 201 °C (dec.) | Cl.O=C(NC1CC1)C1CCN(c2cc(-c3ccccc3)nc3ccsc23)CC1
303 to 305 °C (dec.) | Cl.NC(=O)C1CCN(c2cc(-c3ccccc3)nc3ccsc23)CC1
176 to 178 °C (dec.) | Cl.NCCNC(=O)C1CCN(c2cc(-c3ccccc3)nc3ccsc23)CC1
> 95 °C (dec.) | CCNCCNC(=O)C1CCN(c2cc(-c3ccccc3)nc3ccsc23)CC1.Cl
> 150 °C (dec.) | CN(C)CCNC(=O)C1CCN(c2cc(-c3ccccc3)nc3ccsc23)CC1.Cl
147 to 149 °C (dec.) | COCCCNC(=O)C1CCN(c2cc(-c3ccccc3)nc3ccsc23)CC1.Cl
163 to 165 °C (dec.) | Cl.O=C(NCc1ccccc1)C1CCN(c2cc(-c3ccccc3)nc3ccsc23)CC1
236 to 238 °C (dec.) | Cl.O=C(NCc1cccc(F)c1)C1CCN(c2cc(-c3ccccc3)nc3ccsc23)CC1
190 to 192 °C (dec.) | Cl.O=C(NCc1ccc(F)cc1)C1CCN(c2cc(-c3ccccc3)nc3ccsc23)CC1
177 to 178 °C (dec.) | Cc1ccc(CNC(=O)C2CCN(c3cc(-c4ccccc4)nc4ccsc34)CC2)cc1.Cl
> 230 °C (dec.) | Cl.O=C(NCc1cccs1)C1CCN(c2cc(-c3ccccc3)nc3ccsc23)CC1
220 to 222 °C (dec.) | CCNC(=O)C1CCN(c2cc(-c3ccc(F)cc3)nc3ccsc23)CC1.Cl
207 to 209 °C (dec.) | CCCNC(=O)C1CCN(c2cc(-c3ccc(F)cc3)nc3ccsc23)CC1.Cl
115 to 118 °C (dec.) | Cl.NCCNC(=O)C1CCN(c2cc(-c3ccc(F)cc3)nc3ccsc23)CC1
180 to 182 °C (dec.) | CN(C)CCNC(=O)C1CCN(c2cc(-c3ccc(F)cc3)nc3ccsc23)CC1.Cl
198 to 200 °C (dec.) | Cl.O=C(NCCO)C1CCN(c2cc(-c3ccc(F)cc3)nc3ccsc23)CC1
> 220 °C (dec.) | Cl.O=C(NCCO)C1CCN(c2cc(-c3ccccc3)nc3ccsc23)CC1
> 227 °C (dec.) | CCNC(=O)C1CCN(c2cc(-c3ccncc3)nc3ccsc23)CC1.Cl
179 to 181 °C (dec.) | O=C(NC1CCCC1)C1CCN(c2cc(-c3ccccc3)nc3ccsc23)CC1 (as salt: hydrochloride)
157 to 160 °C (dec.) | COCCNC(=O)C1CCN(c2cc(-c3ccccc3)nc3ccsc23)CC1 (as salt: hydrochloride)
> 210 °C (dec.) | O=C(NCC1CCCO1)C1CCN(c2cc(-c3ccccc3)nc3ccsc23)CC1 (centres unmarked) (as salt: hydrochloride)
176 to 178 °C (dec.) | O=C(NCc1ccncc1)C1CCN(c2cc(-c3ccccc3)nc3ccsc23)CC1 (as salt: hydrochloride)
